From the supplement of paper PMC7023306
± gives the uncertainty stated by the source.

Test: TIMS collision cross section in N2 (TIMS CCS N2); higher = larger gas-phase ion size
Settings: drift gas: N2 (99.4% N2, 0.6% O2), calibration: Stow et al. 2017 values for Agilent ESI-L Low Concentration Tune Mix, ionization: negative ESI
Method: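 Authentic plant natural product standards (10-50 ppm in 80% methanol) were analysed by UHPLC (BEH C18, 60 °C) coupled to a Bruker timsTOF Pro in negative ESI with N2 drift gas. TIMS collision cross sections were computed from mobility peak apices after calibration with Agilent Tune Mix using Stow et al. reference values. Values are the average of triplicate runs on different days, reported per annotated ion species (deprotonated ion, adducts, dimer, oxidized ion).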

Structure (SMILES) | TIMS collision cross section in N2 (ion species: [M-H]-) | also measured
COc1cccc(-c2cc(=O)c3ccc(O)cc3o2)c1 [7-Hydroxy-3'-methoxyflavone] | 165.22 ± 0.11 Å² | TIMS collision cross section in N2 (ion species: [2M-H]-): 229.62 ± 0.17 Å²
COc1ccc(-c2cc(=O)c3ccc(O)cc3o2)cc1 [7-Hydroxy-4'-methoxyflavone] | 165.03 ± 0.085 Å² | TIMS collision cross section in N2 (ion species: [2M-H]-): 231.78 ± 0.34 Å²
O=c1cc(-c2ccccc2)oc2cc(O)ccc12 [7-Hydroxyflavone] | 153.67 ± 0.056 Å² | TIMS collision cross section in N2 (ion species: [2M-H]-): 228.17 ± 0.39 Å²
O=C(/C=C/c1ccccc1)c1ccc(O)cc1O [2',4'-Dihydroxychalcone] | 158.57 ± 0.14 Å² | 
CCCCCCCCCCCCCCC(=O)O [Pentadecanoic acid] | 166.43 ± 0.15 Å² | 
COc1ccc(-c2coc3cc(O)ccc3c2=O)cc1 [Formononetin] | 163.76 ± 0.32 Å² | TIMS collision cross section in N2 (ion species: [2M-H]-): 257.46 ± 0.31 Å²
CCCCCCCCCCCCCCCCCC(=O)O [Stearic acid] | 178.54 ± 0.015 Å² | 
O=c1cc(-c2ccc(O)cc2)oc2ccccc12 [4'-Hydroxyflavone] | 151.91 ± 0.13 Å² | 
O=C(O)[C@H]1O[C@@H](Oc2cc3oc(-c4ccc(O)cc4)cc(=O)c3c(O)c2O)[C@H](O)[C@@H](O)[C@@H]1O [Scutellarein-7-glucuronide] |  | TIMS collision cross section in N2 (ion species: [M-3H]-): 202.76 ± 0.54 Å²
C[C@@H]1O[C@@H](OC[C@H]2O[C@@H](Oc3c(-c4ccc(O)c(O)c4)oc4cc(O)cc(O)c4c3=O)[C@H](O)[C@@H](O)[C@@H]2O)[C@H](O)[C@H](O)[C@H]1O [Rutin] | 231.06 ± 0.2 Å² | TIMS collision cross section in N2 (ion species: [M-3H]-): 219.55 ± 0.41 Å²
CC1(C)CC[C@]2(C(=O)O)CC[C@]3(C)C(=CC[C@@H]4[C@@]5(C)CC[C@H](O)[C@@](C)(CO)[C@@H]5CC[C@]43C)[C@@H]2C1 [Hederagenin] | 222.47 ± 0.52 Å² | TIMS collision cross section in N2 (ion species: [M-H+Na+HCO2H]-): 234.04 ± 0.57 Å²
COc1ccc(-c2coc3cc(O)cc(O)c3c2=O)cc1 [Biochanin A (5,7-Dihydroxy-4'-methoxyisoflavone)] | 166.11 ± 0.071 Å² | TIMS collision cross section in N2 (ion species: [2M-H]-): 261.04 ± 0.32 Å²
CC1(C)C[C@H]2C3=CC[C@@H]4[C@@]5(C)CC[C@H](O)[C@](C)(CO)[C@@H]5CC[C@@]4(C)[C@]3(C)CC[C@@]2(C)[C@H](O)[C@@H]1O [soyasapogenol A] |  | TIMS collision cross section in N2 (ion species: [M-H+HCO2H]-): 224.66 ± 0.27 Å²
COc1ccccc1-c1cc(=O)c2c(O)cc(O)cc2o1 [5,7-Dihydroxy-2'-methoxyflavone] | 167.34 ± 0.07 Å² | TIMS collision cross section in N2 (ion species: [2M-H]-): 238.49 ± 0.23 Å²
COc1ccc(C(=O)/C=C/c2ccccc2)c(O)c1 [2'-Hydroxy-4'-methoxychalcone] | 163.91 ± 0.055 Å² | 
O=c1cc(-c2ccccc2)oc2cccc(O)c12 [5-Hydroxyflavone] | 156 ± 0.14 Å² | TIMS collision cross section in N2 (ion species: [M-H+Na+HCO2H]-): 173.98 ± 0.31 Å²
CCCCCCCCO[C@@H]1O[C@H](CO)[C@@H](O)[C@H](O)[C@H]1O [n-Octyl-beta-D-glucopyranoside] | 181.3 ± 0.15 Å² | TIMS collision cross section in N2 (ion species: [2M-H]-): 272.83 ± 0.74 Å²; TIMS collision cross section in N2 (ion species: [M-H+HCO2H]-): 190.02 ± 0.2 Å²
O=C(/C=C/c1ccc(O)c(O)c1)O[C@@H]1C[C@](O)(C(=O)O)C[C@@H](O)[C@H]1O [Chlorogenic acid] |  | TIMS collision cross section in N2 (ion species: [M-3H]-): 187.02 ± 0.44 Å²
O=c1cc(-c2ccccc2)oc2cc(O)cc(O)c12 [Chrysin] | 156.14 ± 0.1 Å² | TIMS collision cross section in N2 (ion species: [2M-H]-): 230.51 ± 0.25 Å²
CCCCCCCCCCCCCCCC(=O)O [Palmitic acid] | 170.37 ± 0.16 Å² | 
COc1ccc(-c2oc3c(CC=C(C)C)c(O[C@@H]4O[C@H](CO)[C@@H](O)[C@H](O)[C@H]4O)cc(O)c3c(=O)c2O[C@@H]2O[C@@H](C)[C@H](O)[C@@H](O)[C@H]2O)cc1 [Icariin] |  | TIMS collision cross section in N2 (ion species: [M-H+HCO2H]-): 256.3 ± 1.1 Å²

Second part, led by results:

TIMS collision cross section in N2 (ion species: [M-H]-) | Structure (SMILES) | also measured
184.13 ± 0.17 Å² | CC(C)=CCC1=C(O)C(O)(CC=C(C)C)C(=O)C(C(=O)C(C)C)=C1O (centres undefined) [Cohumulone] | 
164.31 ± 0.31 Å² | COc1ccc2c(=O)cc(-c3ccc(O)cc3)oc2c1 [7-Methoxy-4'-hydroxyflavone] | TIMS collision cross section in N2 (ion species: [2M-H]-): 257.82 ± 0.34 Å²
170.87 ± 0.1 Å² | COc1ccc(-c2cc(=O)c3c(O)cc(O)cc3o2)cc1 [5,7-Dihydroxy-4'-methoxyflavone] | TIMS collision cross section in N2 (ion species: [M-3H]-): 165.19 ± 0.13 Å²
223.96 ± 0.26 Å² | O=c1cc(-c2ccc(O)cc2)oc2cc(O[C@@H]3O[C@H](CO)[C@@H](O)[C@H](O)[C@H]3O[C@@H]3OC[C@](O)(CO)[C@H]3O)cc(O)c12 [apiin] | 
201.63 ± 0.24 Å² | COc1cc([C@@H]2Oc3c(O)cc([C@H]4Oc5cc(O)cc(O)c5C(=O)[C@@H]4O)cc3[C@H]2CO)ccc1O [silychristin] | 
231.11 ± 0.1 Å² | C[C@@H]1O[C@@H](OC[C@H]2O[C@@H](Oc3cc(O)c4c(=O)cc(-c5ccc(O)cc5)oc4c3)[C@H](O)[C@@H](O)[C@@H]2O)[C@H](O)[C@H](O)[C@H]1O [Isorhoifolin] | TIMS collision cross section in N2 (ion species: [M-H+Na+HCO2H]-): 237.1 ± 0.28 Å²
206.73 ± 0.66 Å² | CC(C)=CCc1c(O)c(CC=C(C)C)c2c(c1O)C(=O)C[C@@H](c1ccc(O)cc1)O2 [6,8-diprenylnaringenin] | 
212.14 ± 0.076 Å² | O=c1c(-c2ccc(O)cc2)coc2cc(O[C@@H]3O[C@H](CO)[C@@H](O)[C@H](O)[C@H]3O)cc(O)c12 [Genistin] | TIMS collision cross section in N2 (ion species: [M-H+HCO2H]-): 220.37 ± 0.15 Å²
225.59 ± 0.085 Å² | C[C@@H]1O[C@@H](O[C@H]2[C@H](Oc3cc(O)c4c(=O)cc(-c5ccc(O)cc5)oc4c3)O[C@H](CO)[C@@H](O)[C@@H]2O)[C@H](O)[C@H](O)[C@H]1O [Rhoifolin] | TIMS collision cross section in N2 (ion species: [M-H+Na+HCO2H]-): 229.74 ± 2.3 Å²
183.45 ± 0.15 Å² | CC(C)=CCc1c(O)cc(O)c(C(=O)/C=C/c2ccc(O)cc2)c1O [Desmethylxanthohumol] | 
159.28 ± 0.075 Å² | O=C1C[C@@H](c2ccc(O)cc2)Oc2cc(O)ccc21 [Liquiritigenin] | TIMS collision cross section in N2 (ion species: [2M-H]-): 202.54 ± 0.082 Å²
217.09 ± 0.061 Å² | O=C(/C=C/c1ccc(O)cc1)OC[C@H]1O[C@@H](Oc2c(-c3ccc(O)cc3)oc3cc(O)cc(O)c3c2=O)[C@H](O)[C@@H](O)[C@@H]1O [Tiliroside] | 
161.92 ± 0.042 Å² | O=c1cc(-c2cc(O)c(O)c(O)c2)oc2cc(O)ccc12 [7,3',4',5'-Tetrahydroxyflavone] | 
156.93 ± 0.11 Å² | O=c1c(O)c(-c2ccccc2)oc2cc(O)cc(O)c12 [galangin] | TIMS collision cross section in N2 (ion species: [2M-H]-): 238 ± 0.12 Å²
156.67 ± 0.19 Å² | Oc1cc(O)c2c(c1)O[C@@H](c1ccc(O)c(O)c1)[C@H](O)C2 [Catechin] | 
183.54 ± 0.32 Å² | CC(C)=CCc1c(O)cc(O)c2c1O[C@H](c1ccc(O)cc1)CC2=O [8-prenylnaringenin] | 
166.28 ± 0.23 Å² | COc1cc2oc(-c3ccc(O)cc3)cc(=O)c2c(O)c1O [Sorbifolin] | 
185.17 ± 0.47 Å² | CC(C)=CCc1c(O)ccc2c1O[C@H](c1ccc(O)cc1)CC2=O [isobavachin] | TIMS collision cross section in N2 (ion species: [2M-H]-): 237.66 ± 0.46 Å²
158.38 ± 0.01 Å² | O=C1CC(c2ccccc2)Oc2c(O)ccc(O)c21 (centres undefined) [5,8-Dihydroxyflavanone] | 
176.56 ± 0.17 Å² | COc1ccc(C2CC(=O)c3c(ccc(O)c3O)O2)cc1OC (centres undefined) [5,6-dihydroxy-3',4'-dimethoxy-flavanone] | TIMS collision cross section in N2 (ion species: [M-3H]-): 179.11 ± 0.078 Å²; TIMS collision cross section in N2 (ion species: [M-H+Na+HCO2H]-): 192.04 ± 0.13 Å²
154.57 ± 0.12 Å² | O=C1c2ccc(O)cc2O[C@H](c2ccc(O)c(O)c2)[C@H]1O [3,7,3',4'-Tetrahydroxyflavanone (fustin)] | TIMS collision cross section in N2 (ion species: [M-3H]-): 160.22 ± 0.11 Å²
171.28 ± 0.2 Å² | COc1ccc(-c2cc(=O)c3c(O)cc(O)cc3o2)cc1O [Diosmetin] | 
167.78 ± 0.0071 Å² | COc1cc(O)c2c(=O)c(-c3ccc(O)cc3)coc2c1 [Prunetin] | TIMS collision cross section in N2 (ion species: [2M-H]-): 264.09 ± 0.09 Å²
222.66 ± 0.095 Å² | C[C@@H]1O[C@@H](O[C@H]2[C@H](Oc3cc(O)c4c(c3)O[C@H](c3ccc(O)c(O)c3)CC4=O)O[C@H](CO)[C@@H](O)[C@@H]2O)[C@H](O)[C@H](O)[C@H]1O [eriodictyol-7-neohesperidoside] | TIMS collision cross section in N2 (ion species: [M-3H]-): 222.52 ± 0.16 Å²; TIMS collision cross section in N2 (ion species: [M-H+Na+HCO2H]-): 234.56 ± 0.42 Å²
174.21 ± 0.21 Å² | COc1ccc(C2CC(=O)c3c(O)cccc3O2)cc1OC (centres undefined) [5-Hydroxy-3',4'-dimethoxyflavanone] | TIMS collision cross section in N2 (ion species: [M-H+Na+HCO2H]-): 187.65 ± 0.61 Å²
188.57 ± 0.35 Å² | CC(C)=CCC1C(=O)C(C(=O)CC(C)C)=C(O)C(O)(CC=C(C)C)C1=O (centres undefined) [Humulone] | 
